Marks after values point to notes of the source that are not given here.
What was measured:
CATPO T188F variant [1] = molecular target: T1, CATPO T188F variant (Scytalidium thermophilum (Humicola insolens), UniProt M4GGR5, T207F); assay: biochemical; conditions: catechol oxidation by T188F; read-out: K i
CATPO E484D variant [2] = molecular target: T2, CATPO E484D variant (Scytalidium thermophilum (Humicola insolens), UniProt M4GGR5, E503D); assay: biochemical; conditions: catechol oxidation by E484D; read-out: K i
CATPO E484D variant [3] = molecular target: T2, CATPO E484D variant; type: biochemical; conditions: for K m: pH 7.0 (ABTS pH 5.0), 60°C
CATPO E484I variant [4] = molecular target: T3, CATPO E484I variant (Scytalidium thermophilum (Humicola insolens), UniProt M4GGR5, E503I); type: biochemical; conditions: for K m: pH 7.0 (ABTS pH 5.0), 60°C
CATPO T188I variant = CATPO T188I variant (Scytalidium thermophilum (Humicola insolens), UniProt M4GGR5, T207I); type: biochemical; conditions: for K m: pH 7.0 (ABTS pH 5.0), 60°C
CATPO [5] = molecular target: T4, CATPO (Scytalidium thermophilum (Humicola insolens), UniProt M4GGR5); assay: Inhibition of catechol oxidation; type: biochemical; conditions: catechol oxidation by CATPO; catechol 1 to 100 mM; read-out: K i
CATPO [6] = molecular target: T4, CATPO; assay: Substrate-specificity analysis of the phenol oxidase activity; type: biochemical; conditions: for K m: pH 7.0 (ABTS pH 5.0), 60°C
CATPO E484A variant [7] = molecular target: T5, CATPO E484A variant (Scytalidium thermophilum (Humicola insolens), UniProt M4GGR5, E503A); assay: biochemical; conditions: catechol oxidation by E484A; read-out: K i
CATPO E484I variant [8] = molecular target: T3, CATPO E484I variant; assay: biochemical; conditions: catechol oxidation by E484I; read-out: K i
CATPO T188F variant [9] = molecular target: T1, CATPO T188F variant; type: biochemical; conditions: for K m: pH 7.0 (ABTS pH 5.0), 60°C
CATPO E484A variant [10] = molecular target: T5, CATPO E484A variant; assay: Substrate-specificity analysis of the phenol oxidase activity; type: biochemical; conditions: for K m: pH 7.0 (ABTS pH 5.0), 60°C
CATPO T188D variant [11] = molecular target: T6, CATPO T188D variant (Scytalidium thermophilum (Humicola insolens), UniProt M4GGR5, T207D); assay: biochemical; conditions: catechol oxidation by T188D; read-out: K i
CATPO T188D variant [12] = molecular target: T6, CATPO T188D variant; type: biochemical; conditions: for K m: pH 7.0 (ABTS pH 5.0), 60°C
CATPO T188A variant [13] = molecular target: T7, CATPO T188A variant (Scytalidium thermophilum (Humicola insolens), UniProt M4GGR5, T207A); type: biochemical; conditions: for K m: pH 7.0 (ABTS pH 5.0), 60°C
CATPO T188A variant [14] = molecular target: T7, CATPO T188A variant; assay: biochemical; conditions: catechol oxidation by T188A; read-out: K i
[15] = substrate: CC(C)(C)c1ccc(O)c(O)c1; assay: Spectrophotometric phenol oxidase assay without H2O2 at pH 7.0 and 60 °C, initial rates fitted to the Michaelis-Menten equation.; type: biochemical
Experimental: (§1) All inhibition assays were performed in triplicate.

[16] = substrate: Cc1ccc(O)c(O)c1; assay: as above; type: biochemical
Experimental: as §1

[17] = substrate: Oc1ccc(O)cc1; assay: as above; type: biochemical
Experimental: as §1

[18] = substrate: CCn1c(=NN=c2sc3cc(S(=O)(=O)O)ccc3n2CC)sc2cc(S(=O)(=O)O)ccc21; assay: purified protein, by the assay type; conditions: 60.0 °C
[19] = substrate: Oc1ccccc1O; assay: Phenol oxidase activity (H2O2-independent) measured spectrophotometrically by product formation at pH 7.0, 60 C, Michaelis-Menten fit.; type: biochemical
Experimental: as §1

T1 sequence (M4GGR5 entry or part of it T207F): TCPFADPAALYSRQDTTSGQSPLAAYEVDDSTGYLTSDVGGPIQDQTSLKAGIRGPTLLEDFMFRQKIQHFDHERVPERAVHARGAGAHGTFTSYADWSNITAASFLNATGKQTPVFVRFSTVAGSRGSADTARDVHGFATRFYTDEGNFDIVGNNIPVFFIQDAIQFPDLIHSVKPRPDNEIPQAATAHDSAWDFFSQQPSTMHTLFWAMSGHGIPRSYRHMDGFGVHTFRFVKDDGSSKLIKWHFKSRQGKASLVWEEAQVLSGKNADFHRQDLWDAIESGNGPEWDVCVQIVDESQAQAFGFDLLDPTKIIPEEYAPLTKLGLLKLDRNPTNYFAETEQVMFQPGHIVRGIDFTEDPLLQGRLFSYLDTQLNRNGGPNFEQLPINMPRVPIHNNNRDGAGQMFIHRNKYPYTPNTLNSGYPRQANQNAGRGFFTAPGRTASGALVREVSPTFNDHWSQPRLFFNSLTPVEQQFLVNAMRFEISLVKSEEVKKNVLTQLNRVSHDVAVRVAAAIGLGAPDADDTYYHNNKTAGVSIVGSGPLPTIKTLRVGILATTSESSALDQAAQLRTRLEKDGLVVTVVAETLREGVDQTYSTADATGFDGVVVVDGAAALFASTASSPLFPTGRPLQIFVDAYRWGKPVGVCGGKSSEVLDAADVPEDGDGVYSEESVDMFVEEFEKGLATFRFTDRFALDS
T2 sequence (M4GGR5 entry or part of it E503D): as the sequence (M4GGR5 entry or part of it T207F) above
T5 sequence (M4GGR5 entry or part of it E503A): as the sequence (M4GGR5 entry or part of it T207F) above
T6 sequence (M4GGR5 entry or part of it T207D): as the sequence (M4GGR5 entry or part of it T207F) above
CATPO T188I variant, sequence (M4GGR5 entry or part of it T207I): as the sequence (M4GGR5 entry or part of it T207F) above
T7 sequence (M4GGR5 entry or part of it T207A): as the sequence (M4GGR5 entry or part of it T207F) above
T3 sequence (M4GGR5 entry or part of it E503I): as the sequence (M4GGR5 entry or part of it T207F) above
T4 sequence (M4GGR5 entry or part of it): as the sequence (M4GGR5 entry or part of it T207F) above

Molecule | V max (CATPO E484D variant [3]) [mM/min] | k cat/K m (CATPO E484D variant [3]) | K m (CATPO E484D variant [3]) [mM] | V max (CATPO E484I variant [4]) [mM/min] | k cat/K m (CATPO E484I variant [4]) | K m (CATPO E484I variant [4]) [mM] | V max (CATPO T188I variant) [mM/min] | k cat/K m (CATPO T188I variant) | K m (CATPO T188I variant) [mM] | V max (CATPO [6]) [mM/min] | k cat/K m (CATPO [6]) | K m (CATPO [6]) [mM] | V max (CATPO T188F variant [9]) [mM/min] | k cat/K m (CATPO T188F variant [9]) | Km [15] [mM] | Km [16] [mM] | Km [17] [mM] | Km [18] [mM] | Km [19] [mM] | kcat/Km [19] [M⁻¹ s⁻¹] | other results
CCn1c(=NN=c2sc3cc(S(=O)(=O)O)ccc3n2CC)sc2cc(S(=O)(=O)O)ccc21 [ABTS, 2,2′-azino-bis(3-ethylbenzthiazoline-6-sulfonic acid)] | 5500 ± 132 | 100 ± 10 s^−1 M^−1 (×10^2) | 53 ± 1.0 | 4600 ± 98 | 170 ± 10 s^−1 M^−1 (×10^2) | 50 ± 0.5 | 6000 ± 100 | 190 ± 18 s^−1 M^−1 (×10^2) | 48 ± 0.7 | 5620 ± 250 | 590 ± 20 s^−1 M^−1 (×10^2) | 50 ± 1.5 | 6600 ± 120 | 270 ± 25 s^−1 M^−1 (×10^2) |  |  |  |  |  |  | Ki (CATPO T188F variant [1]): 84 ± 7 mM; Ki (CATPO E484D variant [2]): 12 ± 1.2 mM; Ki (CATPO [5]): 11 ± 1 mM; Ki (CATPO E484A variant [7]): 96 ± 5.4 mM; Ki (CATPO E484I variant [8]): 81 ± 8 mM; K m (CATPO T188F variant [9]): 45 ± 0.5 mM; V max (CATPO E484A variant [10]): 8600 ± 220 mM/min; k cat/K m (CATPO E484A variant [10]): 300 ± 10 s^−1 M^−1 (×10^2); K m (CATPO E484A variant [10]): 46 ± 1.0 mM; Ki (CATPO T188D variant [11]): 81 ± 1 mM; V max (CATPO T188D variant [12]): 4000 ± 88 mM/min; k cat/K m (CATPO T188D variant [12]): 200 ± 25 s^−1 M^−1 (×10^2); K m (CATPO T188D variant [12]): 55 ± 1.0 mM; V max (CATPO T188A variant [13]): 5000 ± 100 mM/min; k cat/K m (CATPO T188A variant [13]): 90 ± 5 s^−1 M^−1 (×10^2); K m (CATPO T188A variant [13]): 52 ± 0.8 mM; Ki (CATPO T188A variant [14]): 12 ± 1.2 mM
Oc1ccccc1O [Catechol, catechol] | 23000 ± 1500 | 2100 ± 105 s^−1 M^−1 (×10^2) | 35 ± 0.5 | 50000 ± 1988 | 8800 ± 72 s^−1 M^−1 (×10^2) | 30 ± 1.0 | 65000 ± 1100 | 9200 ± 45 s^−1 M^−1 (×10^2) | 31 ± 0.5 | 25000 ± 763 | 2200 ± 130 s^−1 M^−1 (×10^2) | 33 ± 0.5 | 70000 ± 1290 | 10200 ± 220 s^−1 M^−1 (×10^2) |  |  |  |  |  |  | K m (CATPO T188F variant [9]): 30 ± 1.0 mM; V max (CATPO E484A variant [10]): 88000 ± 880 mM/min; k cat/K m (CATPO E484A variant [10]): 14500 ± 130 s^−1 M^−1 (×10^2); K m (CATPO E484A variant [10]): 30 ± 1.0 mM; V max (CATPO T188D variant [12]): 40000 ± 4000 mM/min; k cat/K m (CATPO T188D variant [12]): 8900 ± 70 s^−1 M^−1 (×10^2); K m (CATPO T188D variant [12]): 25 ± 1.5 mM; V max (CATPO T188A variant [13]): 22500 ± 1000 mM/min; k cat/K m (CATPO T188A variant [13]): 2000 ± 120 s^−1 M^−1 (×10^2); K m (CATPO T188A variant [13]): 33 ± 0.5 mM
T188F (Mycothermus thermophilus; T207F) (protein, recombinant, pET-28-TEV-CATPO; contains heme b; Rz 0.8) TCPFADPAALYSRQDTTSGQSPLAAYEVDDSTGYLTSDVGGPIQDQTSLKAGIRGPTLLEDFMFRQKIQHFDHERVPERAVHARGAGAHGTFTSYADWSNITAASFLNATGKQTPVFVRFSTVAGSRGSADTARDVHGFATRFYTDEGNFDIVGNNIPVFFIQDAIQFPDLIHSVKPRPDNEIPQAAFAHDSAWDFFSQQPSTMHTLFWAMSGHGIPRSYRHMDGFGVHTFRFVKDDGSSKLIKWHFKSRQGKASLVWEEAQVLSGKNADFHRQDLWDAIESGNGPEWDVCVQIVDESQAQAFGFDLLDPTKIIPEEYAPLTKLGLLKLDRNPTNYFAETEQVMFQPGHIVRGIDFTEDPLLQGRLFSYLDTQLNRNGGPNFEQLPINMPRVPIHNNNRDGAGQMFIHRNKYPYTPNTLNSGYPRQANQNAGRGFFTAPGRTASGALVREVSPTFNDHWSQPRLFFNSLTPVEQQFLVNAMRFEISLVKSEEVKKNVLTQLNRVSHDVAVRVAAAIGLGAPDADDTYYHNNKTAGVSIVGSGPLPTIKTLRVGILATTSESSALDQAAQLRTRLEKDGLVVTVVAETLREGVDQTYSTADATGFDGVVVVDGAAALFASTASSPLFPTGRPLQIFVDAYRWGKPVGVCGGKSSEVLDAADVPEDGDGVYSEESVDMFVEEFEKGLATFRFTDRFALDS |  |  |  |  |  |  |  |  |  |  |  |  |  |  | 34 ± 0.4 | 32 ± 1.0 | 42 ± 1.0 | 45 ± 0.5 | 30 ± 1.0 | 1.02e+06 ± 22000 | kcat [19]: 30600 ± 1800 s⁻¹
E484D (Mycothermus thermophilus; E503D) (protein, recombinant, pET-28-TEV-CATPO; contains heme d; Rz 0.8) TCPFADPAALYSRQDTTSGQSPLAAYEVDDSTGYLTSDVGGPIQDQTSLKAGIRGPTLLEDFMFRQKIQHFDHERVPERAVHARGAGAHGTFTSYADWSNITAASFLNATGKQTPVFVRFSTVAGSRGSADTARDVHGFATRFYTDEGNFDIVGNNIPVFFIQDAIQFPDLIHSVKPRPDNEIPQAATAHDSAWDFFSQQPSTMHTLFWAMSGHGIPRSYRHMDGFGVHTFRFVKDDGSSKLIKWHFKSRQGKASLVWEEAQVLSGKNADFHRQDLWDAIESGNGPEWDVCVQIVDESQAQAFGFDLLDPTKIIPEEYAPLTKLGLLKLDRNPTNYFAETEQVMFQPGHIVRGIDFTEDPLLQGRLFSYLDTQLNRNGGPNFEQLPINMPRVPIHNNNRDGAGQMFIHRNKYPYTPNTLNSGYPRQANQNAGRGFFTAPGRTASGALVREVSPTFNDHWSQPRLFFNSLTPVEQQFLVNAMRFDISLVKSEEVKKNVLTQLNRVSHDVAVRVAAAIGLGAPDADDTYYHNNKTAGVSIVGSGPLPTIKTLRVGILATTSESSALDQAAQLRTRLEKDGLVVTVVAETLREGVDQTYSTADATGFDGVVVVDGAAALFASTASSPLFPTGRPLQIFVDAYRWGKPVGVCGGKSSEVLDAADVPEDGDGVYSEESVDMFVEEFEKGLATFRFTDRFALDS |  |  |  |  |  |  |  |  |  |  |  |  |  |  | 38 ± 0.5 | 36 ± 0.1 | 46 ± 0.8 | 53 ± 1.0 | 35 ± 0.5 | 210000 ± 10500 | kcat [19]: 7400 ± 296 s⁻¹
E484A (Mycothermus thermophilus; E503A) (protein, recombinant, pET-28-TEV-CATPO; contains heme b; Rz 0.8) TCPFADPAALYSRQDTTSGQSPLAAYEVDDSTGYLTSDVGGPIQDQTSLKAGIRGPTLLEDFMFRQKIQHFDHERVPERAVHARGAGAHGTFTSYADWSNITAASFLNATGKQTPVFVRFSTVAGSRGSADTARDVHGFATRFYTDEGNFDIVGNNIPVFFIQDAIQFPDLIHSVKPRPDNEIPQAATAHDSAWDFFSQQPSTMHTLFWAMSGHGIPRSYRHMDGFGVHTFRFVKDDGSSKLIKWHFKSRQGKASLVWEEAQVLSGKNADFHRQDLWDAIESGNGPEWDVCVQIVDESQAQAFGFDLLDPTKIIPEEYAPLTKLGLLKLDRNPTNYFAETEQVMFQPGHIVRGIDFTEDPLLQGRLFSYLDTQLNRNGGPNFEQLPINMPRVPIHNNNRDGAGQMFIHRNKYPYTPNTLNSGYPRQANQNAGRGFFTAPGRTASGALVREVSPTFNDHWSQPRLFFNSLTPVEQQFLVNAMRFAISLVKSEEVKKNVLTQLNRVSHDVAVRVAAAIGLGAPDADDTYYHNNKTAGVSIVGSGPLPTIKTLRVGILATTSESSALDQAAQLRTRLEKDGLVVTVVAETLREGVDQTYSTADATGFDGVVVVDGAAALFASTASSPLFPTGRPLQIFVDAYRWGKPVGVCGGKSSEVLDAADVPEDGDGVYSEESVDMFVEEFEKGLATFRFTDRFALDS |  |  |  |  |  |  |  |  |  |  |  |  |  |  | 33 ± 0.5 | 33 ± 1.0 | 43 ± 1.2 | 46 ± 1.0 | 30 ± 1.0 | 1.45e+06 ± 13000 | 

Source: paper PMC10836395, “Investigation of how gate residues in the main channel affect the catalytic activity of Scytalidium thermophilum catalase” (Acta Crystallographica. Section D, Structural Biology, 2024)
